Measurements: US8431593B2, “Heteroaryl amide derivatives” (H. Lundbeck A/S, priority 2006, dated 2013)
pIC50: −log10 of the molar value.

biological target: T1, P2X7 receptor (Homo sapiens, UniProt Q99572); experiment: P2X7 calcium mobilization assay, high throughput, antagonist activity (Example 4A); type: cell-based; details: not given
T1 construct: host or cells: SH-SY5Y
T1 sequence (Q99572 1-595): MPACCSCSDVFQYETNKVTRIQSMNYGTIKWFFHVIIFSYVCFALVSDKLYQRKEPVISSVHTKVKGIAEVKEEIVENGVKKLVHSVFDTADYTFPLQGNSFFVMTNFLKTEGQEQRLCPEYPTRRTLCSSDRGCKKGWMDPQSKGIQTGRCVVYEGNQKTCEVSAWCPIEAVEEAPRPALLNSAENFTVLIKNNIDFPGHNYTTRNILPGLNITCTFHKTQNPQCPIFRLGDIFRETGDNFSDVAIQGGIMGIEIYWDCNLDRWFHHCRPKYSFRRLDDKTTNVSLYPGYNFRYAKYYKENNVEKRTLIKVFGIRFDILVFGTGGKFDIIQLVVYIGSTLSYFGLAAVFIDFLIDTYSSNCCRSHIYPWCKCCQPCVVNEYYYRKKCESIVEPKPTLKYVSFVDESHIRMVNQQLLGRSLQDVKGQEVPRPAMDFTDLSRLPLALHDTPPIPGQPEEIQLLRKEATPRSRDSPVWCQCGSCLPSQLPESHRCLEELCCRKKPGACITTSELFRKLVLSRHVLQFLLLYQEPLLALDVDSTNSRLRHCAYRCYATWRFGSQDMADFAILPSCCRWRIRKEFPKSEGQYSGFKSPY
Summary of the method: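 Dye-loaded cells (100,000/well, seeded previous day) are pre-exposed to compound for an hour at room temperature. Fluorescence maxima are baseline-corrected against no-agonist wells and compared with the averaged agonist-well maximum.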

Compound | pIC50
CNCCN(C)Cc1cn2c(C(=O)NCC34CC5CC(CC(C5)C3)C4)cccc2n1 [Compound 124, N-(adamantan-1-ylmethyl)-2-({methyl[2-(methylamino)eth-yl]amino}methyl)imi-dazo[1,2-a]pyridine-5-carboxamide] | > 5.70

same assay, conditions: 50% decrease in the fluorescence response of cells exposed to 80 μM 2′(3′)-O-(4-benzoyl-benzoyl)adenosine 5′-triphosphate; Example 4A; read-out: IC50

Compound | pIC50
CC1(C)[C@@H]2CC[C@@H](CNC(=O)c3cccc4nc(CC(=O)N5CCC[C@@H]5CN)cn34)[C@H]1C2 [Compound 584, 2-{2-[(2R)-2-(aminomethyl)pyrrolidin-1-yl]-2-oxoethyl}-N-{[(1R,2R,5R)-6,6-dimethylbicyclo [3.1.1]hept-2-yl]methyl}imidazo [1,2-a]pyridine-5-carboxamide] | > 5.70
COC(=O)CN(C)C(=O)c1cn2c(C(=O)NC[C@@H]3CC[C@H]4C[C@@H]3C4(C)C)cccc2n1 [Compound 481, methyl N-{[5-({[(1S,2R,5S)-6,6-dimethylbicyclo[3.1.1]hept-2-yl]methyl}carbamoyl)imidazo[1,2-a]pyridin-2-yl]carbonyl}-N-methylglycinate] | > 5.70
CC1(C)[C@H]2CC[C@@H](CNC(=O)c3cccc4nc(C(=O)N5CCCC5)cn34)[C@@H]1C2 [Compound 454, N-{[(1S,2R,5S)-6,6-dimethylbicyclo[3.1.1]hept-2-yl]methyl}-2-(pyrrolidin-1-ylcarbonyl) imidazo[1,2-a]pyridine-5-carboxamide] | > 5.70
CC1(C)[C@@H]2CC[C@@H](CNC(=O)c3cccc4nc(CC(=O)NCC5CCCN5)cn34)[C@H]1C2 (stereo partly drawn) [Compound 590, N-{[(1R,2R,5R)-6,6-dimethylbicyclo[3.1.1]hept-2-yl]methyl}-2-{2-oxo-2-[(pyrrolidin-2-ylmethyl)amino]ethyl} imidazo[1,2-a]pyridine-5-carboxamide] | > 5.70

same assay, conditions: 50% decrease in the fluorescence response of cells exposed to 80 μM of 2′(3′)-O-(4-benzoyl-benzoyl)adenosine 5′-triphosphate; Example 4A; read-out: IC50

Compound | pIC50
NCC1CN(C(=O)c2cn3c(C(=O)NCC45CC6CC(CC(C6)C4)C5)cccc3n2)C1 [Compound 634, N-(adamantan-1-ylmethyl)-2-{[3-(aminomethyl)azetidin-1-yl]carbonyl}imidazo[1,2-a]pyridine-5-carboxamide] | > 5.70
CN1CCCC1CCNC(=O)c1cn2c(C(=O)NCC34CC5CC(CC(C5)C3)C4)cccc2n1 (stereo not drawn) [Compound 649, 5-N-(adamantan-1-ylmethyl)-2-N-[2-(1-methylpyrrolidin-2-yl)ethyl]imidazo[1,2-a]pyridine-2,5-dicarboxamide] | > 5.70
O=C(NCCN1CCOCC1)c1cn2c(C(=O)NCC34CC5CC(CC(C5)C3)C4)cccc2n1 [Compound 648, 5-N-(adamantan-1-ylmethyl)-2-N-(2-morpholin-4-ylethyl)imidazo[1,2-a]pyridine-2,5-dicarboxamide] | > 5.70
CC(C)CC(CNC(=O)c1cccc2nc(CN3CC[C@@H](NC(=O)OC(C)(C)C)C3)cn12)c1ccc(Cl)cc1 (stereo partly drawn) [Compound 766, tert-butyl{1-[(5-{[2-(4-chlorophenyl)-4-methylpentyl]carbamoyl}imidazo[1,2-a]pyridin-2-yl)methyl]pyrrolidin-3-yl}carbamate] | > 5.70

same assay, conditions: 50% decrease in the fluorescence response of cells exposed to 80 μM of 2′(3′)-O-(4-benzoyl-benzoyl)adenosine 5′-triphosphate; determined as in Example 4A; read-out: IC50

Compound | pIC50
CCCCC(C(=O)O)c1cn2c(C(=O)NCC34CC5CC(CC(C5)C3)C4)cccc2n1 (stereo not drawn) [Compound 908, 2-{5-[(adamantan-1-ylmethyl)carbamoyl]imidazo[1,2-a]pyridin-2-yl} hexanoic acid] | > 5.70
O=C(Cc1cn2c(C(=O)NCC3(c4ccc(Cl)cc4)CCCCC3)cccc2n1)NCC(F)(F)F [Compound 875, N-{[1-(4-chlorophenyl)cyclohexyl]methyl}-2-{2-oxo-2-[(2,2,2-trifluoroethyl)amino]ethyl} imidazo[1,2-a] pyridine-5-carboxamide] | > 5.70
Cc1ccc(C(CNC(=O)c2cccc3nc(CC(Cc4ccccc4)C(=O)O)cn23)CC(C)C)cc1 (stereo not drawn) [Compound 1005, 2-benzyl-3-(5-{[4-methyl-2-(4-methylphenyl)pentyl]carbamoyl}imidazo[1,2-a]pyridin-2-yl)propanoic acid] | > 5.70
CC(C)CC(CNC(=O)Cc1cn2c(C(=O)NC3CCCCC3)cccc2n1)c1ccc(Cl)cc1 (stereo not drawn) [Compound 975, 2-(2-{[2-(4-chlorophenyl)-4-methylpentyl]amino}-2-oxoethyl)-N-cyclohexylimidazo [1,2-a]pyridine-5-carboxamide] | > 5.70
CC(C)(C)CCNC(=O)Cc1cn2c(C(=O)NCC3(c4ccc(Cl)cc4)CCCCC3)cccc2n1 [Compound 871, N-{[1-(4-chlorophenyl)cyclohexyl]methyl}-2-{2-[(3,3-dimethylbutyl)amino]-2-oxoethyl} imidazo[1,2-a] pyridine-5-carboxamide] | > 5.70
CCCCC(C(=O)OCC)c1cn2c(C(=O)NCC34CC5CC(CC(C5)C3)C4)cccc2n1 (stereo not drawn) [Compound 906, ethyl 2-{5-[(adamantan-1-ylmethyl)carbamoyl]imidazo[1,2-a]pyridin-2-yl} hexanoate] | > 5.70
CCC(C)NC(=O)Cc1cn2c(C(=O)NCC3(c4cccnc4)CCCCC3)cccc2n1 (stereo not drawn) [Compound 869, 2-[2-(sec-butylamino)-2-oxoethyl]-N-[(1-pyridin-3-ylcyclohexyl)methyl] imidazo[1,2-a] pyridine-5-carboxamide] | > 5.70
CC(C)CC(CNC(=O)c1cccc2nc(CC(=O)N3CCC[C@@H](NC(=O)OC(C)(C)C)C3)cn12)c1ccc(Cl)cc1 (stereo partly drawn) [Compound 928, tert-butyl {(3R)-1-[(5-{[2-(4-chlorophenyl)-4-methylpentyl]carbamoyl}imidazo[1,2-a]pyridin-2-yl)acetyl]piperidin-3-yl}carbamate] | > 5.70
N[C@@H]1CCN(Cc2cn3c(C(=O)NCC4(c5ccc(Cl)cc5)CCCCC4)cccc3n2)C1 [Compound 821, 2-{[(3R)-3-aminopyrrolidin-1-yl]methyl}-N-{[1-(4-chlorophenyl)cyclohexyl]methyl} imidazo[1,2-a]pyridine-5-carboxamide] | > 5.70
O=C(NCC12CC3CC(CC(C3)C1)C2)c1cccc2nc(CC3(C(=O)O)CCOCC3)cn12 [Compound 847, 4-({5-[(adamantan-1-ylmethyl)carbamoyl]imidazo [1,2-a]pyridin-2-yl}methyl) tetrahydro-2H-pyran-4-carboxylic acid] | > 5.70
O=C(NCC12CC3CC(CC(C3)C1)C2)c1cccc2nc([C@H]3CCCC[C@H]3C(=O)O)cn12 (relative stereo) [Compound 995, rel-(1R,2S)-2-{5-[(adamantan-1-ylmethyl)carbamoyl]imidazo[1,2-a]pyridin-2-yl} cyclohexane-carboxylic acid] | > 5.70

same assay, conditions: SH-SY5Y cells; 50% decrease in fluorescence response to 80 μM BzATP; read-out: IC50

Compound | pIC50
O=C(NCC12CC3CC(CC(C3)C1)C2)c1cccc2nc(CC(=O)N3CC(O)C3)cn12 [Compound 55, N-(adamantan-1-ylmethyl)-2-[2-(3-hydroxyazetidin-1-yl)-2-oxoethyl]imidazo[1,2-a]pyridine-5-carboxamide] | > 5.70
CC1(O)CCN(C(=O)Cc2cn3c(C(=O)NCC45CC6CC(CC(C6)C4)C5)cccc3n2)CC1 [Compound 56, N-(adamantan-1-ylmethyl)-2-[2-(4-hydroxy-4-methylpiperidin-1-yl)-2-oxoethyl]imidazo[1,2-a]pyridine-5-carboxamide] | > 5.70
CCOC(=O)Cc1cn2c(C(=O)NCC(CC(C)C)c3ccccc3)cccc2n1 (stereo not drawn) [Compound 139, ethyl {5-[(4-methyl-2-phenylpentyl)car-bamoyl]imidazo[1,2-a]pyridin-2-yl}acetate] | > 5.70

same assay, conditions: fluorescence response of cells exposed to 80 μM 2′(3′)-O-(4-benzoyl-benzoyl)adenosine 5′-triphosphate; Example 4A; read-out: IC50

Compound | pIC50
CCNC(=O)Cc1cn2c(C(=O)NCC(CC(C)C)c3ccccc3)cccc2n1 (stereo not drawn) [Compound 220, 2-[2-(ethylamino)-2-oxoethyl]-N-(4-methyl-2-phenylpentyl) imidazo [1,2-a]pyridine-5-carboxamide] | > 5.70
